# In US20060009425A1, “Oral formulations of paricalcitol” (priority 2004, published 2006):
# Tests used:
# [1] = Bioavailability of capsule vs intravenous formulation, end-stage renal disease on hemodialysis (Example 3); assay type: in vivo; conditions: human, plasma
# Experimental: Methodology: This was a Phase I, open-label, randomized, single-dose, two-period, crossover, nonfasting study. Subjects were randomized into two sequence groups of Regimens A and B. The two nonfasting study regimens were:
# The intravenous formulation contained 2-10 micrograms/milliliter of paricalcitol, 30% (v/v) propylene glycol, 20% (v/v) ethanol and 50% (v/v) water.
# Both regimens were administered at the end of a regular hemodialysis session on Study Day 1, 30 minutes after a breakfast was served. […] Fourteen subjects participated in the study. […] A washout interval of at least 7 days separated the doses of the two study periods. […] Plasma concentrations of paricalcitol were determined using a validated liquid chromatography—tandem mass spectrometric assay method at Abbott Laboratories, Abbott Park, Ill. […] The lower limit of quantification of paricalcitol was 0.02 ng/mL using a 0.6 mL plasma sample.
# Pharmacokinetics: The pharmacokinetic parameter values of paricalcitol were estimated using noncompartmental methods. […] The volume of distribution for intravenous administration (Vdβ) and apparent volume of distribution for oral administration (Vdβ/F) value were calculated by dividing the clearance by β. […]
# [2] = system: iPTH; assay: Combined Phase 3 studies, iPTH reduction (Examples 11, 12); assay type: in vivo, human; conditions: for iPTH, Mean Change from Baseline (SE) / iPTH, Mean Percent Change from Baseline (SE): last on-treatment
# Experimental: In this example, three double-blind, placebo-controlled, multicenter studies were conducted to evaluate the safety and efficacy of paricalcitol capsule in CKD stage 3-4 subjects. Major inclusion included eGFR (MDRD formula) 15-60 mL/min/1.73 m^2, iPTH ≧150 pg/mL. A total of 220 subjects across the 3 studies were randomized and received paricalcitol capsule or placebo three times weekly (TIW, N=145) or daily (QD, N=75) for 24 weeks. […] The initial dose was 2 mcg (TIW) or 1 mcg (QD) for baseline iPTH ≦500 pg/mL and 4 mcg (TIW) or 2 mcg (QD) for baseline iPTH >500 pg/mL. Doses were titrated based on serum Ca, P and iPTH results that were measured every 2 weeks, dose increases occurred every 4 weeks.
# In this example, paricalcitol capsules were evaluated in 3 double-blind, placebo-controlled multicenter studies in CKD stage 3-4 subjects with 2° HPT; 2 of these studies were conducted with TIW dosing and 1 was done with QD dosing. Subjects with eGFR (MDRD formula) 15-60 ml/min/1.73 m^2, iPTH ≧150 pg/mL, serum Ca 8.0-10.0 mg/dL and PO4≦5.2 mg/dL were randomized 1:1 and treated with paricalcitol capsule or placebo for 24 weeks. A total of 145 subjects used TIW regimen (paricalcitol: 72; placebo: 73) and 75 subjects (paricalcitol: 35; placebo: 40) used QD regimen. After the initial doses, doses were titrated based on serum Ca, P and iPTH results that were measured every 2 weeks; dose increases occurred once every 4 weeks and decreases every 2 weeks. Dosing administrations are shown below in Table 18.
structure (smiles),measurement,setting,value
"C[C@H](/C=C/[C@H](C)C(C)(C)O)[C@H]1CC[C@H]2/C(=C/C=C3C[C@@H](O)C[C@H](O)C3)CCC[C@]12C [Paricalcitol, 19-nor-1α,3β,25-trihydroxy-9,10-secoergosta-5(Z); 7(E),22(E)-triene]",half-life,"[1]; 0.24 ug/kg, 0.24 μg/kg single dose, hemodialysis, harmonic mean ± pseudo-standard deviation",~14 h
same,bioavailability,"[1]; 0.24 μg/kg, single oral dose, nonfasting, end-stage renal disease on hemodialysis, read-out: estimated absolute bioavailability",78.8%
same,30% mean iPTH reduction by,[2]; 3 Phase 3 studies combined,≤ 9 Week
same,efficacy in PTH suppression,"[2]; 24-week pivotal Phase 3 studies, CKD Stage 3 and 4 with 2° HPT",> 90%
same,subjects with 2 consecutive 30% decreases in iPTH,"[2]; 92/101, 3 Phase 3 studies combined",91%
same,"2 consecutive 30% iPTH reduction from baseline, subjects n (%)","[2]; N = 101, 3 Phase 3 studies combined",92 (91%)
same,"iPTH, Mean Last On-Treatment Value","[2]; QD Regimen, N = 35",128 pg/mL
same,"iPTH, Mean Change from Baseline (SE)",[2]; QD Regimen,−131 (16.7) pg/mL
same,"iPTH, Mean Percent Change from Baseline (SE)",[2]; QD Regimen,−50% (5.0)
same,2 consecutive 30% iPTH reduction from baseline,[2]; QD regimen,91%
same,30% mean iPTH reduction by,[2]; QD regimen,≤ 7 Week
same,2 consecutive 30% iPTH reduction from baseline,"[2]; QD regimen, listed as paricalcitol",91%
same,"iPTH, Mean Last On-Treatment Value","[2]; TIW Regimen, N = 69",179 pg/mL
same,"iPTH, Mean Change from Baseline (SE)",[2]; TIW Regimen,−90 (10.7) pg/mL
same,"iPTH, Mean Percent Change from Baseline (SE)",[2]; TIW Regimen,−33% (3.6)
same,2 consecutive 30% iPTH reduction from baseline,[2]; TIW regimen,91%
same,30% mean iPTH reduction by,[2]; TIW regimen,≤ 9 Week
same,2 consecutive 30% iPTH reduction from baseline,"[2]; TIW regimen, listed as paricalcitol",91%
